Key:
[1] = tested on: NF-kB pathway (TNF-α secretion by THP-1 cells); experiment: TNF-α secretion assay in LPS-stimulated THP-1 cells, Lumit immunoassay; type: cell-based, human; details: monocytic THP-1 cells, LPS 10 ng/mL, relative IC50, 10 concentrations, geometric mean
Experimental: Monocytic THP-1 cells were maintained in RPMI 1640 media (Gibco 21875)+10% FBS, (Gibco 10500)+1% penicillin/streptomycin (Gibco 15140-122). Cells were then plated at 40,000 cells per well in 384-well cell culture plates (Corning 3542) and maintained with RPMI1640 (Gibco 11835)+5% FBS, (Gibco 10500). Experimental compounds were prepared and added as described above. TNF-α secretion was triggered by the addition of 10 ng/mL LPS (invivoGen, tlrl-3pelps) and cells were incubated for 3 hours. TNF-α levels were monitored directly in the cells plate using an Lumit assay (Lumit TNFa-Human Immunoassay—Promega W6051) according to manufacturers' instructions.
Data were expressed as percentage of inhibition (I %) as compared to a maximum signal control containing no small molecule (I %=0%) according to the formula: 1%=(1−((Sample−Min))/((Max−Min)))×100, where: • Sample: Signal obtained in the presence of each compound tested, • Max: Maximum signal in the absence of compound added, • Min: Minimum or background signal obtained in the absence of activation signal.
Relative IC50 (IC50 rel) were obtained from a dose response curve with 10 concentrations. Final IC50 rels are expressed as the geometric mean.
Relative IC50 values were estimated with Biost@t-SPEED v2.4 internal software based on SAS system using the 4-parameter logistic model according to Ratkovsky and Reedy (D. A. Ratkovsky, T. J. Reedy, Choosing near-linear parameters in the four parameters logistic model radioligands and related assays. Biometrics, 42 (1986), 575-582): Y=A+C/((1+exp(−B*(log(X)−M)))), where: • A: Lower asymptote (BOTTOM), • A+C: Upper asymptote (TOP), • M: the logarithm of the concentration estimated at the inflexion point (the logarithm of the relative IC50), • B: Slope at the inflexion point of the curve.

NLRP3 inflammasome = target: T1, NLRP3 inflammasome (Homo sapiens, UniProt Q96P20); experiment: IL-1β secretion assay (NLRP3 IC50) in LPS-primed, nigericin-activated THP-1 cells, HTRF; type: cell-based; details: monocytic THP-1 cells; LPS 10 ng/mL 3 h priming, then compound + nigericin 10 μM 2 h; relative IC50, 10 concentrations, geometric mean
T1 construct: endogenous in cells; host or cells: THP-1 monocytic cells
Method in brief: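 THP-1 cells primed with LPS 10 ng/mL for 3 h at 37° C., then compound (10-point 1:3 dilution, 0.1% DMSO) added with 10 μM nigericin for 2 h. Supernatant IL-1β measured by HTRF; relative IC50 from a 4-parameter logistic fit, reported as geometric mean.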

T1 sequence (Q96P20 whole entry): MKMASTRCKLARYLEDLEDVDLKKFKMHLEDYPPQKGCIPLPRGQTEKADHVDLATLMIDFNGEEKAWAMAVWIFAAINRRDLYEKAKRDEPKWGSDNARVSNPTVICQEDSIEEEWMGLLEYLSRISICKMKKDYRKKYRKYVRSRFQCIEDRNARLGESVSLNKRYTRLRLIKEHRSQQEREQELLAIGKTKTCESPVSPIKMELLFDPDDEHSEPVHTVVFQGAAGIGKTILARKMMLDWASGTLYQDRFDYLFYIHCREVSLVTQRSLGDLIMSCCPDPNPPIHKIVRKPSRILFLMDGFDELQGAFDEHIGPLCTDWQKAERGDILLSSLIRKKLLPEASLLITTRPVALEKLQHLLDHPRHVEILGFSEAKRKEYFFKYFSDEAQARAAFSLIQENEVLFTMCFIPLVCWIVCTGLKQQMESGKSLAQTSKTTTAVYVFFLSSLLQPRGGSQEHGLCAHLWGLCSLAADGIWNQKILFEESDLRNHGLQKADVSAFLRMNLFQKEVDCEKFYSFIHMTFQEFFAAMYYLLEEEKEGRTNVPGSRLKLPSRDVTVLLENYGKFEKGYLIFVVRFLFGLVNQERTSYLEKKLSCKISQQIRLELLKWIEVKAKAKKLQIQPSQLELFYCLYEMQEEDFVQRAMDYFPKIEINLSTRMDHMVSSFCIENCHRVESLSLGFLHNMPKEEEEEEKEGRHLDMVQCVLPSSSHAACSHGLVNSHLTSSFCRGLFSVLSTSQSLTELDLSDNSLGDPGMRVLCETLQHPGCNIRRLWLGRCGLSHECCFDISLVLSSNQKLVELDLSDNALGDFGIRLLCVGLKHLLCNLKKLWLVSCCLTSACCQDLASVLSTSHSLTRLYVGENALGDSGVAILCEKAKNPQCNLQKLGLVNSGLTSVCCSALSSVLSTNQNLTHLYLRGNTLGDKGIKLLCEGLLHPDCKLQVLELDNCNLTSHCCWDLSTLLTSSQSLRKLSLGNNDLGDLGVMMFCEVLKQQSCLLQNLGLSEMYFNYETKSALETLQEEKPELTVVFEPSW

Compound	IC50 ([1]; Homo sapiens, THP-1, 3 h) [nM]	IC50 (NLRP3 inflammasome) [nM]	IC50 ([1]; 3 hours) [nM]
Cc1cc(C(F)(F)F)cc(O)c1-c1ccc(N2CCOC(CN(C)C)C2)nn1 (single isomer, unassigned) [Example 60, 2-[6-[-2-[(dimethylamino)methyl]morpholin-4-yl]pyridazin-3-yl]-3-methyl-5-(trifluoromethyl)phenol]	> 10000	386	
Cc1cc(C)c(-c2ccc(N3C[C@H](CO)CC3=O)nn2)c(O)c1 (single isomer, unassigned) [Example 137]	> 10000	411	
Cc1cc(C)c(-c2ccc(N3C[C@@H](CO)CC3=O)nn2)c(O)c1 (single isomer, unassigned) [Example 138]	> 10000	441	
Cc1cc(C)c(-c2ccc(N3CC[C@H](CO)C3=O)nn2)c(O)c1 (single isomer, unassigned) [Example 139]	> 10000	235	
Cc1cc(C)c(-c2ccc(N3CC[C@@H](CO)C3=O)nn2)c(O)c1 (single isomer, unassigned) [Example 140]	> 10000	210	
CNC(=O)C[C@@H]1CN(c2ccc(-c3c(C)cc(C)cc3O)nn2)CCO1 (single isomer, unassigned) [Example 142]	> 10000	360	
CNC(=O)C[C@H]1CN(c2ccc(-c3c(C)cc(C)cc3O)nn2)CCO1 (single isomer, unassigned) [Example 143]	> 10000	221	
Cc1cc(C)c(-c2ccc(N3CCO[C@H](CC(N)=O)C3)nn2)c(O)c1 (single isomer, unassigned) [Example 146]	> 10000	242	
Cc1cc(C)c(-c2ccc(N3CCO[C@@H](CC(N)=O)C3)nn2)c(O)c1 (single isomer, unassigned) [Example 147]	> 10000	575	
CCC(=O)C1CN(c2ccc(-c3c(C)cc(C)cc3O)nn2)CCO1 (single isomer, unassigned) [Example 157]	> 10000	314	
Cc1cc(C)c(-c2ccc(N3CCOC([C@@H](C)O)C3)nn2)c(O)c1 (single isomer, unassigned) [Example 180]	> 10000	473	
Cc1cc(C)c(-c2ccc(N3CCO[C@H](CCO)C3)nn2)c(O)c1 (single isomer, unassigned) [Example 233]	> 10000	164	
Cc1cc(C)c(-c2ccc(N3CCO[C@@H](CCO)C3)nn2)c(O)c1 (single isomer, unassigned) [Example 234]	> 10000	355	
Oc1cc(Cl)cc(Cl)c1-c1ccc(N2CCO[C@@H](CF)C2)nn1 (single isomer, unassigned) [Example 237]	4120	24	
Oc1cc(Cl)cc(Cl)c1-c1ccc(N2CCO[C@H](CF)C2)nn1 (single isomer, unassigned) [Example 238]	4290	47	
Cc1cc(C(F)(F)F)cc(O)c1-c1ccc(N2CCO[C@H]3CCNC[C@H]32)nn1 (single isomer, unassigned) [Example 251]	> 10000	21	
Cc1cc(C(F)(F)F)cc(O)c1-c1ccc(N2CCO[C@@H]3CCNC[C@@H]32)nn1 (single isomer, unassigned) [Example 252]	> 10000	461	
CCN1CC[C@@H]2OCCN(c3ccc(-c4c(C)cc(C(F)(F)F)cc4O)nn3)[C@@H]2C1 (single isomer, unassigned) [Example 255]	> 10000	249	
Cc1cccc(O)c1-c1ccc(N2CC[C@H]3CCN(C)C[C@H]32)nn1 (single isomer, unassigned) [Example 416]	> 10000	1	

Results, then the molecule that gave them:

IC50 ([1]; Homo sapiens, THP-1, 3 h) [nM]	IC50 (NLRP3 inflammasome) [nM]	IC50 ([1]; 3 hours) [nM]	Compound
> 10000	1		CCN1CC[C@H]2OCCN(c3ccc(-c4c(C)cc(C(F)(F)F)cc4O)nn3)[C@H]2C1 (single isomer, unassigned) [Example 256]
> 10000	180		Cc1cc(C(F)(F)F)cc(O)c1-c1ccc(N2CCO[C@@H]3CCN(C)C[C@@H]32)nn1 (single isomer, unassigned) [Example 260]
> 10000	1		Cc1cc(C(F)(F)F)cc(O)c1-c1ccc(N2CCO[C@H]3CCN(C)C[C@H]32)nn1 (single isomer, unassigned) [Example 261]
> 10000	17		CC(=O)N1CC[C@H]2OCCN(c3ccc(-c4c(C)cc(C(F)(F)F)cc4O)nn3)[C@H]2C1 (single isomer, unassigned) [Example 262]
> 10000	180		CC(=O)N1CC[C@@H]2OCCN(c3ccc(-c4c(C)cc(C(F)(F)F)cc4O)nn3)[C@@H]2C1 (single isomer, unassigned) [Example 263]
> 10000	493		Cc1cc(C(F)(F)F)cc(O)c1-c1ccc(N2CC[C@H]3CN(C)C[C@H]32)nn1 (single isomer, unassigned) [Example 270]
	51	2040	CC(=O)NCCC1CN(c2ccc(-c3c(C)cc(C(F)(F)F)cc3O)nn2)CCO1 (single isomer, unassigned) [Example 277, N-[2-[4-[6-[2-hydroxy-6-methyl-4-(trifluoromethyl)phenyl]pyridazin-3-yl]morpholin-2-yl]ethyl]acetamide]
	50	> 10000	CC(=O)NCCC1CN(c2ccc(-c3c(C)cc(C(F)(F)F)cc3O)nn2)CCO1 (single isomer, unassigned) [Example 278, N-[2-[4-[6-[2-hydroxy-6-methyl-4-(trifluoromethyl)phenyl]pyridazin-3-yl]morpholin-2-yl]ethyl]acetamide]
> 10000	87		Cc1cc(C(F)(F)F)cc(O)c1-c1ccc(N2CCO[C@H](CF)C2)nn1 (single isomer, unassigned) [Example 284]
> 10000	84		Cc1cc(C(F)(F)F)cc(O)c1-c1ccc(N2CCC(CO)CC2=O)nn1 (single isomer, unassigned) [Example 293]
> 10000	56		CCN1CC[C@@H]2OCCN(c3ccc(-c4c(C)cc(Cl)cc4O)nn3)[C@@H]2C1 (single isomer, unassigned) [Example 312]
> 10000	0.3		CCN1CC[C@H]2OCCN(c3ccc(-c4c(C)cc(Cl)cc4O)nn3)[C@H]2C1 (single isomer, unassigned) [Example 313]
> 10000	1		Cc1cc(Cl)cc(O)c1-c1ccc(N2CCO[C@@H]3CCN(C)C[C@@H]32)nn1 (single isomer, unassigned) [Example 321]
> 10000	47		Cc1cc(C(F)(F)F)cc(O)c1-c1ccc(N2CCO[C@H]3CCN(C)C[C@@H]32)nn1 (single isomer, unassigned) [Example 343]
> 10000	25		Cc1cc(N2CC[C@@H]3CCN(C)C[C@@H]32)nnc1-c1ccc(C(F)(F)F)cc1O (single isomer, unassigned) [Example 366]
> 10000	0.5		Cc1cc(N2CC[C@H]3CCN(C)C[C@H]32)nnc1-c1ccc(C(F)(F)F)cc1O (single isomer, unassigned) [Example 367]
> 10000	42		Cc1ccc(-c2nnc(N3CC[C@@H]4CCN(C)C[C@@H]43)cc2C)c(O)c1 (single isomer, unassigned) [Example 374]
> 10000	0.4		Cc1ccc(-c2nnc(N3CC[C@H]4CCN(C)C[C@H]43)cc2C)c(O)c1 (single isomer, unassigned) [Example 375]
> 10000	0.4		Cc1cc(C)c(-c2ccc(N3CC[C@@H]4CCN(C)C[C@@H]43)nn2)c(O)c1 (single isomer, unassigned) [Example 384]
> 10000	23		CC(=O)N1CC[C@H]2OCCN(c3ccc(-c4c(C)cc(Cl)cc4O)nn3)[C@H]2C1 (single isomer, unassigned) [Example 397]
> 10000	3		Cc1cc(C(F)(F)F)cc(O)c1-c1ccc(N2CC[C@@H]3CCNC[C@@H]32)nn1 (single isomer, unassigned) [Example 407]

Source: US20240360151A1 (SANOFI, priority 2023, published 2024)
